Experimental data from patent publication US12404261B2, “Compounds and compositions for treating conditions associated with cGAS” (Novartis AG, priority 2020, dated 2025).

Biological target: human truncated cGAS enzyme (147-522 human cGAS) (Homo sapiens (Human), UniProt Q8N884)
Test: Quantification of cGAS protein inhibition (cGAMP formation measured by LC-MS/MS)
Type: biochemical
Settings: reported for the potential mixture in solution of co-existing tautomers and/or racemates
Method: A reagent buffer was prepared in filtered and autoclaved water according to the following: • 50 mM Tris-buffer pH 7.5 (1 M Tris-buffer pH 7.5, Invitrogen, Cat. No. 15567-027); • 50 mM NaCl (5 M NaCl, Sodium Chloride Solution, Sigma, 59222C-); • 5 mM MgCl2 (1 M MgCl2, Sigma, M1028); • 0.1 mM ZnCl2 (Zinc Chloride [7646-85-7], powder, Cell Culture Tested, Sigma, Z-0152); and • 0.001% Tween 20 (TWEEN 20, Sigma Aldrich, P1379-).
A buffer for the cGAS enzyme was prepared in filtered and autoclaved water according to the following: • 50 mM Tris-buffer pH 7.5; • 5 mM MgCl2; and • 0.001% Tween 20.
Compounds were dispensed to a […]. The human truncated cGAS enzyme (4.2 mg/mL 147-522 human cGAS, MW 43,909 g/mol) was stored in 50 mM Tris, 500 mM NaCl, 5% (v/v) glycerol at pH 8 and diluted in the cGAS buffer enzyme shortly before use. The enzyme solution was transferred into the reagent buffer to give a final concentration of 30 nM. The reaction was started by mixing the enzyme with ISD (a 45 bp double stranded DNA, MW 27,670 g/mol, 5 mM), GTP and ATP to a final concentration of 5 μM, 0.5 mM and 0.5 mM respectively in a final volume of 10 μl. The reaction plates were then centrifuged at 1000 rpm for 1 minute and incubated at room temperature for 1 h. After 1 h of incubation, [^5Ns]-2′3′-cGAMP to a final concentration of 200 nM and 30 μL of 100% acetonitrile/0.175% of TFA were added to the reaction mixture. The plates were centrifuged at 1000 rpm for 1 minute before being sealed for 3 seconds at 170° C. using a ThermoScientific sealer (ALPS™ 50V) and an aluminum sealing cover (Pierce Seal, 4titude, Product Code: 4TI-0531).
The concentration of cGAMP was measured on a LC-MS/MS system consisting of a THERMO Dionex Ultimate LC system with a high pressure pump, an autosampler, a column heating compartment (Reinach, Switzerland) and a SCIEX Triple Quad 5500 (Framingham, MA, USA) mass spectrometer for detection. The sample plates were centrifuged for 10 minutes at 2000 rpm. Up to three plates were placed in the autosampler for injection. An aliquot of 10 μL of each sample was injected on an XBridge BEH Amide 3.5 μm, 2.1×50 mm column (P/N 186004859) with an XBridge BEH Amide 5 μm 2.1×5 mm VanGuard Cartridge (P/N 186007760) pre-column (both WATERS, MA, USA) held at 40° C. An isocratic flow of 1.0 mL/min solvent (60% ACN, 8 mM ammonium acetate, 5 mM ammonium hydroxide, 0.04% acetic acid) was applied and sprayed into the ion source of the mass spectrometers. The MS parameters were optimized based on the properties of the compounds to be detected and run in positive multi-reaction mode (MRM) based on the mass transitions. LC and MS parameters were also optimized to allow for a sample-to-sample measuring time of approximately 75 sec and a run time of 8 hours per 384-well plate. All data were analyzed with Excel; and the dose response curves were generated using the auto fitting function of XLfit. The IC50 was determined by plotting the cGAMP concentration ratio (cGAMP divided by the internal standard [^15Ns]-2′3′-cGAMP) versus the concentration of compound.

Chain of human truncated cGAS enzyme (147-522 human cGAS) (Q8N884 147-522): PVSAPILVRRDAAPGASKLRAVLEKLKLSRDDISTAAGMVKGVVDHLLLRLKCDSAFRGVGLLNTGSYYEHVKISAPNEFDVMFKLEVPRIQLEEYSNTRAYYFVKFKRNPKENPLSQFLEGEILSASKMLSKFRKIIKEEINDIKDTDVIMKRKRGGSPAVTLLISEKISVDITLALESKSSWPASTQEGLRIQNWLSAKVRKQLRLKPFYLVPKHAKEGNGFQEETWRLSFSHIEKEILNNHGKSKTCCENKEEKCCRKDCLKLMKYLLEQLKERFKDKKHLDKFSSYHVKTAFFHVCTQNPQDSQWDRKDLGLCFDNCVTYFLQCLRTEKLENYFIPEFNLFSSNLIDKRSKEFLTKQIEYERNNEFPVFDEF

| IC50 | SMILES |
| --- | --- |
| 180 nM | CN[C@H](COC)c1nnc(-c2c(-n3ccnc3)c3cc(OC)c(Cl)c(F)c3n2C)[nH]1 [Example 125b, (S)-1-(5-(6-chloro-7-fluoro-3-(1H-imidazol-1-yl)-5-methoxy-1-methyl-1H-indol-2-yl)-4H-1,2,4-triazol-3-yl)-2-methoxy-N-methylethan-1-amine] |
| 757 nM | COCCNC(C)c1nnc(-c2c(-n3ccnc3)c3cc(OC)c(Cl)c(F)c3n2C)[nH]1 (centres unmarked) [Example 129, 1-(5-(6-chloro-7-fluoro-3-(1H-imidazol-1-yl)-5-methoxy-1-methyl-1H-indol-2-yl)-4H-1,2,4-triazol-3-yl)-N-(2-methoxyethyl)ethan-1-amine] |
| 318 nM | COc1cc2c(-n3ccnc3)c(-c3nnc(C(=O)N(C)C)[nH]3)n(C)c2c(F)c1F [Example 104, 5-(6,7-difluoro-3-(1H-imidazol-1-yl)-5-methoxy-1-methyl-1H-indol-2-yl)-N,N-dimethyl-4H-1,2,4-triazole-3-carboxamide] |
| 201 nM | Cn1c(-c2nnc(C(F)(F)F)[nH]2)c(-n2ccnc2)c2ccc(Cl)c(C#N)c21 [Example 111, 6-chloro-3-(1H-imidazol-1-yl)-1-methyl-2-(5-(trifluoromethyl)-4H-1,2,4-triazol-3-yl)-1H-indole-7-carbonitrile] |
| 177 nM | COc1cc2c(-n3ccnc3)c(-c3nnc(C(C)N(C)C)[nH]3)n(C)c2c(F)c1Cl (centres unmarked) [Example 122, 1-(5-(6-chloro-7-fluoro-3-(1H-imidazol-1-yl)-5-methoxy-1-methyl-1H-indol-2-yl)-4H-1,2,4-triazol-3-yl)-N,N-dimethylethan-1-amine] |
| 122 nM | COCC(c1nnc(-c2c(-n3ccnc3)c3cc(OC)c(Cl)c(F)c3n2C)[nH]1)N(C)C (racemic) [Example 124, 1-(5-(6-chloro-7-fluoro-3-(1H-imidazol-1-yl)-5-methoxy-1-methyl-1H-indol-2-yl)-4H-1,2,4-triazol-3-yl)-2-methoxy-N,N-dimethylethan-1-amine] |
| 121 nM | CNC(C)c1nnc(-c2c(-n3ccnc3)c3cc(OC)c(Cl)c(F)c3n2C)[nH]1 (centres unmarked) [Example 123, 1-(5-(6-chloro-7-fluoro-3-(1H-imidazol-1-yl)-5-methoxy-1-methyl-1H-indol-2-yl)-4H-1,2,4-triazol-3-yl)-N-methylethan-1-amine] |
| 80 nM | COc1cc2c(-n3ccnc3)c(-c3nnc(C(C)N4CCOCC4)[nH]3)n(C)c2c(F)c1Cl (centres unmarked) [Example 121, 4-(1-(5-(6-chloro-7-fluoro-3-(1H-imidazol-1-yl)-5-methoxy-1-methyl-1H-indol-2-yl)-4H-1,2,4-triazol-3-yl)ethyl)morpholine] |
| 103 nM | COc1cc2c(-n3ccnc3)c(-c3nnc(C(=O)N(C)C)[nH]3)n(C)c2cc1Cl [Example 116, 5-(6-chloro-3-(1H-imidazol-1-yl)-5-methoxy-1-methyl-1H-indol-2-yl)-N,N-dimethyl-4H-1,2,4-triazole-3-carboxamide] |

Same assay, conditions: reported for the potential mixture of co-existing tautomers and/or racemates

| SMILES | IC50 |
| --- | --- |
| Oc1cc2c(-c3cn[nH]c3)c(-c3nnc(C(F)(F)F)[nH]3)[nH]c2cc1Cl [Example 33, 6-Chloro-3-(1H-pyrazol-4-yl)-2-(5-(trifluoromethyl)-4H-1,2,4-triazol-3-yl)-1H-indol-5-ol] | 38 nM |
| NC(=O)c1nnc(-c2[nH]c3c(Cl)c(Cl)ccc3c2-c2cn[nH]c2)[nH]1 [Example 22, 5-(6,7-dichloro-3-(1H-pyrazol-4-yl)-1H-indol-2-yl)-4H-1,2,4-triazole-3-carboxamide] | 30 nM |
| OCCc1nnc(-c2[nH]c3c(Cl)c(Cl)ccc3c2-c2cn[nH]c2)[nH]1 [Example 15, 2-(5-(6,7-dichloro-3-(1H-pyrazol-4-yl)-1H-indol-2-yl)-4H-1,2,4-triazol-3-yl)ethan-1-ol] | 188 nM |
| COCC(=O)c1nnc(-c2[nH]c3c(F)c(Cl)c(OC)cc3c2-c2cn[nH]c2)[nH]1 [Example 57, 1-(5-(6-chloro-7-fluoro-5-methoxy-3-(1H-pyrazol-4-yl)-1H-indol-2-yl)-4H-1,2,4-triazol-3-yl)-2-methoxyethan-1-one] | 30 nM |
| COc1cc2c(-c3cn[nH]c3)c(-c3nnc(N4CCOCC4)[nH]3)n(C)c2c(F)c1Cl [Example 59, 4-(5-(6-chloro-7-fluoro-5-methoxy-1-methyl-3-(1H-pyrazol-4-yl)-1H-indol-2-yl)-4H-1,2,4-triazol-3-yl)morpholine] | 78 nM |
| COc1cc2c(-c3cn[nH]c3)c(-c3nnc(C(=O)N(C)C)[nH]3)n(C)c2c(F)c1Cl [Example 2, 5-(6-chloro-7-fluoro-5-methoxy-1-methyl-3-(1H-pyrazol-4-yl)-1H-indol-2-yl)-N,N-dimethyl-4H-1,2,4-triazole-3-carboxamide] | 46 nM |
| COc1cc2c(-c3cn[nH]c3)c(-c3nnc(C(F)(F)F)[nH]3)[nH]c2c(F)c1Cl [Example 4, 6-chloro-7-fluoro-5-methoxy-3-(1H-pyrazol-4-yl)-2-(5-(trifluoromethyl)-4H-1,2,4-triazol-3-yl)-1H-indole] | 33 nM |
| COc1cc2c(-c3cn[nH]c3)c(-c3nnc(C(F)(F)F)[nH]3)[nH]c2cc1Cl [Example 24, 6-chloro-5-methoxy-3-(1H-pyrazol-4-yl)-2-(5-(trifluoromethyl)-4H-1,2,4-triazol-3-yl)-1H-indole] | 69 nM |
| CCOC(=O)c1nnc(-c2[nH]c3cc(Cl)c(OC)cc3c2-c2cn[nH]c2)[nH]1 [Example 28, ethyl 5-(6-chloro-5-methoxy-3-(1H-pyrazol-4-yl)-1H-indol-2-yl)-4H-1,2,4-triazole-3-carboxylate] | 75 nM |
| COCC(F)c1nnc(-c2c(-c3cn[nH]c3)c3cc(OC)c(Cl)c(F)c3n2C)[nH]1 (centres unmarked) [Example 70, 6-chloro-7-fluoro-2-(5-(1-fluoro-2-methoxyethyl)-4H-1,2,4-triazol-3-yl)-5-methoxy-1-methyl-3-(1H-pyrazol-4-yl)-1H-indole] | 39 nM |
| COc1cc2c(-c3cn[nH]c3)c(-c3nnc(C(F)(F)F)[nH]3)n(CCO)c2cc1Cl [Example 25, 2-(6-chloro-5-methoxy-3-(1H-pyrazol-4-yl)-2-(5-(trifluoromethyl)-4H-1,2,4-triazol-3-yl)-1H-indol-1-yl)ethan-1-ol] | 1430 nM |
| COCC(F)(F)c1nnc(-c2[nH]c3c(Cl)c(Cl)ccc3c2-c2cn[nH]c2)[nH]1 [Example 9, 6,7-dichloro-2-(5-(1,1-difluoro-2-methoxyethyl)-4H-1,2,4-triazol-3-yl)-3-(1H-pyrazol-4-yl)-1H-indole] | 30 nM |

Other lines, results leading:

| IC50 | SMILES |
| --- | --- |
| 43 nM | COc1cc2c(-n3ccnc3)c(-c3nnc(F)[nH]3)[nH]c2c(F)c1Cl [Example 87, 6-chloro-7-fluoro-2-(5-fluoro-4H-1,2,4-triazol-3-yl)-3-(1H-imidazol-1-yl)-5-methoxy-1H-indole] |
| 72 nM | COc1cc2c(-n3ccnc3)c(-c3nnc(OCCO)[nH]3)n(C)c2c(F)c1Cl [Example 94, 2-((5-(6-chloro-7-fluoro-3-(1H-imidazol-1-yl)-5-methoxy-1-methyl-1H-indol-2-yl)-4H-1,2,4-triazol-3-yl)oxy)ethan-1-ol] |
| 169 nM | COc1cc2c(-n3ccnc3)c(-c3nnc(CCO)[nH]3)n(C)c2c(F)c1Cl [Example 51, 2-(5-(6-chloro-7-fluoro-3-(1H-imidazol-1-yl)-5-methoxy-1-methyl-1H-indol-2-yl)-4H-1,2,4-triazol-3-yl)ethan-1-ol] |
| 30 nM | COc1cc2c(-c3cn[nH]c3)c(-c3nnc(C(C)C#N)[nH]3)n(C)c2c(F)c1Cl (centres unmarked) [Example 82, 2-(5-(6-Chloro-7-fluoro-5-methoxy-1-methyl-3-(1H-pyrazol-4-yl)-1H-indol-2-yl)-4H-1,2,4-triazol-3-yl)propanenitrile] |
| 109 nM | COc1cc2c(-n3ccnc3)c(-c3nnc(N4CC[C@@H](O)C4)[nH]3)n(C)c2c(F)c1Cl [Example 91, (R)-1-(5-(6-chloro-7-fluoro-3-(1H-imidazol-1-yl)-5-methoxy-1-methyl-1H-indol-2-yl)-4H-1,2,4-triazol-3-yl)pyrrolidin-3-ol] |
